A short description of data set [1]: Mouse acute food intake study. Type of data set: in vivo. To be noted: male C57Bl/6 mice, s.c., dose 10 nmol/kg, cumulative food intake at 24 hr vs vehicle. Summed up:
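Peptide or vehicle went subcutaneously (5 mL/kg) to 6-8 h-fasted male C57Bl/6 mice shortly before the dark phase, with groups balanced on body weight and 24-hour intake. Cumulative food consumption was derived from 48 h of automated BioDaq monitoring with free food and water access.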

A further data set concerns the target T1, recombinant Neprilysin (Homo sapiens, UniProt P08473).
T1 construct: purchased R&D Systems 1182-ZNC-010
In words: Proteolytic resistance to neprilysin. Particulars: pH 8.3. Type of data set: in vitro ADME. Summed up:
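Peptide stock (~250 μM) mixed 1:1 with neprilysin stock (100 μg/mL) in Tris/NaCl/NaHCO3 buffer, pH 8.3, at 37° C. Aliquots at 0, 30 min, 1, 2, 4, 24 h quenched in TFA/acetonitrile. Intact peptide estimated by RP-HPLC peak area at 210 nm.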

Data set [2] deals with GLP-1R knockout (KO) mice. In words: Glucose change in GLP-1R knockout mice. Type of data set: in vivo, mouse. Particulars: GLP-1R KO mice, s.c., 120 min vs 0 min, somatostatin pretreatment (octreotide) 30 min prior to cpd. Summed up:
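GLP-1R knockout mice (n=4-8/group, sorted by body weight) were fasted 2 h, and in some studies pretreated with octreotide 10 mg/kg 30 min before peptide injection. Mice were reused up to 3 times with at least 1-week wash-out.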

Data set [3] deals with human GLP-1 receptor (hGLP-1R) (Homo sapiens, UniProt P43220). In words: cAMP production (HTRF) in CHO cells expressing hGLP-1R. Type of data set: cell-based. Further details: expressed in transfected cells. Summed up:
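Read-out: HTRF cAMP (anti-cAMP cryptate donor, cAMP-d2 acceptor in conjugate/lysis buffer), converted to % Delta F and fitted by 4-parameter logistic for EC50. Cell densities were 1×10^5 cells/mL (hGLP-1R) or 2×10^5 cells/mL (hGCGR). Stimulation lasted 30 min at room temperature.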

Starred links: 1 amine or outer side, 2 acyl side, 3 side chain; linkers in the order of their positions; H or OH if unused. Non-standard residues stand in square brackets, D forms with d. Residues, ends and D or L forms follow the SMILES beside them. Groups on a side chain read outwards from the residue. *: point of attachment. C18 diacid = O=C(O)CCCCCCCCCCCCCCCCC(=O)*; γGlu = O=C(O)[C@H](CCC(=O)[*:2])N[*:1]; αMeF = C[C@](N)(Cc1ccccc1)C(=O)O; Aib = CC(C)(N)C(=O)O

T1 sequence (P08473 52-750 limits assumed): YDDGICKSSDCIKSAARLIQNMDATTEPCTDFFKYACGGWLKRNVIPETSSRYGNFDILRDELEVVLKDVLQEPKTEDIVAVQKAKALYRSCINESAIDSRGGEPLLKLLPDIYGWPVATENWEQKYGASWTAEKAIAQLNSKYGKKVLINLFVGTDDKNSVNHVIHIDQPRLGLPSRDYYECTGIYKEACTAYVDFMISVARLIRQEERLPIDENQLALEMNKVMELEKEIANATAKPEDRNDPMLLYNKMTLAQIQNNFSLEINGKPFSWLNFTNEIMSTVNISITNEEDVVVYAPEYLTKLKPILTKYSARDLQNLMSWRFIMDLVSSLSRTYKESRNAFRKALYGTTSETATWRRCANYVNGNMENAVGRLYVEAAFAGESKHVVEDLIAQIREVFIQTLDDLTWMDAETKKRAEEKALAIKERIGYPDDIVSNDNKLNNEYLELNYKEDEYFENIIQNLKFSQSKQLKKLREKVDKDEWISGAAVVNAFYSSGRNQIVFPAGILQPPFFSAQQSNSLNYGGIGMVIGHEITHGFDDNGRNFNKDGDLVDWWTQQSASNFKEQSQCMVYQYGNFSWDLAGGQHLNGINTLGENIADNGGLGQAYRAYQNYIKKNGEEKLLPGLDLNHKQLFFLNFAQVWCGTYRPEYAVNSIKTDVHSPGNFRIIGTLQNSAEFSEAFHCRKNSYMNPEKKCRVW
human GLP-1 receptor (hGLP-1R), sequence (P43220 24-463): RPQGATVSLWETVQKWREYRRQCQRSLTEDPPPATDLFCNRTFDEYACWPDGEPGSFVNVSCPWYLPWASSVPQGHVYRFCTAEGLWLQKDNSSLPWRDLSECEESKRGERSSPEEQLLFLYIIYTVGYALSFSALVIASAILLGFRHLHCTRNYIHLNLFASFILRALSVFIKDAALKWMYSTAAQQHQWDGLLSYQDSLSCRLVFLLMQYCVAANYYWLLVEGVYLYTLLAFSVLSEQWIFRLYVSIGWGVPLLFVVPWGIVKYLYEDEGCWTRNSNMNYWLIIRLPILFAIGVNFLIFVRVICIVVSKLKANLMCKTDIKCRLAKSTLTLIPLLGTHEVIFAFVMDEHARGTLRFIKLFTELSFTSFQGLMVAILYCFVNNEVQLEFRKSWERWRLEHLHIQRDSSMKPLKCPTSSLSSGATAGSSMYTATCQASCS

The amount remaining is the share of the starting amount still present when the sample was taken. As a reminder, the EC50 is the concentration at which the effect is half-maximal. On to `CC[C@H](C)[C@H](NC(=O)[C@H](Cc1c[nH]c2ccccc12)NC(=O)[C@H](CCC(=O)O)NC(=O)[C@@H](NC(=O)[C@](C)(Cc1ccccc1)NC(=O)[C@H](CC(=O)O)NC(=O)[C@H](CCC(N)=O)NC(=O)[C@H](C)NC(=O)[C@H](C)NC(=O)[C@H](CCCCNC(=O)CC[C@H](NC(=O)CCCCCCCCCCCCCCCCC(=O)O)C(=O)O)NC(=O)[C@H](CO)NC(=O)[C@H](CC(=O)O)NC(=O)[C@H](CC(C)C)NC(=O)[C@](C)(Cc1ccccc1)NC(=O)[C@H](CCCCN)NC(=O)[C@H](CO)NC(=O)[C@@H](NC(=O)[C@H](CC(=O)O)NC(=O)[C@H](CO)NC(=O)[C@@H](NC(=O)[C@](C)(Cc1ccccc1)NC(=O)[C@H](CO)NC(=O)CNC(=O)[C@H](Cc1c[nH]cn1)NC(=O)C(C)(C)NC(=O)[C@@H](N)Cc1c[nH]cn1)[C@@H](C)O)C(C)C)C(C)C)C(=O)N[C@@H](C)C(=O)N[C@@H](CC(N)=O)C(=O)N[C@H](C(N)=O)[C@@H](C)O` [Peptide 7] (H-H[Aib]HGS[αMeF]TSDVSK[αMeF]LDSK([γGlu-C18 diacid])AAQD[αMeF]VEWIANT-NH2; N-terminus assumed), for which, in data set [1], the “24 hr % Vehicle Food Intake” value is listed as 55.0%. Also, at recombinant Neprilysin (isolated enzyme neprilysin), the fraction remaining at 0.5 h turned out to be 100%, the fraction remaining at 2 h worked out at 100%, the fraction remaining at 4 h worked out at 97% and the fraction remaining at 24 h was found to be 84%. Also, at recombinant Neprilysin, the “% intact peptide over time” value is listed as 100%. In addition, the “GLP-1R KO % glucose change 120 min” value in data set [2] (1.5 nmol/kg) turned out to be 80.8%. Moreover, the “GLP-1R KO % glucose change 120 min” value in data set [2] (5 nmol/kg) worked out at 152.9%. In data set [3] (Table 6, peptides modified at position 17, cAMP in CHO hGLP-1R cells, geometric mean, read-out: hGLP-1R EC50), the EC50 is 84.6 pM. Moreover, the “% Relative Potency Ratio” value in data set [3] (Table 6, % GLP-1R activity relative to GLP-1 / % GlucR activity relative to glucagon) is given as 0.7.

(Values after US20250353891A1 (MEDIMMUNE LIMITED, priority 2022, published 2025).)
